Source: patent publication US20120066778A1, “CONTROL OF URIC ACID HOMEOSTASIS” (priority 2009, published 2012)

What was measured:
[1] = test system: UREX sensor circuit (mUTS, hucO8); assay: Uric acid response of UREX-controlled SEAP expression in cultured human cells; type: cell-based; conditions: 5 mM uric acid added to cultures transfected with pCK9 and pCK25, 48 h
Experimental: (d) Functional validation of the UREX sensor circuit. 4×10^4 HeLa cells were co-transfected with the UREX expression vectors pCK9 and pCK25 (see FIG. 1a) and cultivated for 48 h in the presence or absence of 5 mM uric acid before SEAP was quantified in the cell culture supernatant.
(e-g) Urate-dependent dose-response characteristics of UREX in the presence and absence of the human urate transporter URAT1. 3×10^5 HeLa (e), HEK-293 (f) or HT-1080 cells (g) were co-transfected with the UREX sensor plasmids pCK9 and pCK25 (see FIG. 1a) and either pURAT1 (PhCMV-URAT1-pA) or the isogenic control vector pcDNA3.1. The transfected populations were cultivated in medium supplemented with different uric acid concentrations and resulting SEAP levels were profiled after 48 h.
(b) Urate-based dose-response profile of the triple-transgenic HEK-293UREX15 cell line stably engineered for UREX-controlled SEAP and constitutive URAT1 expression. 5×10^4 HEK-293UREX15 were cultivated in the presence of different urate concentrations and SEAP levels were quantified in the culture supernatant after 72 h.
(c) Reversibility of the UREX-based uric acid sensor circuit. 2×10^5 HEK-293UREX15 cells were cultivated for 10 days while alternating uric acid concentrations from 0 to 5 mM every 72 h (arrows). […]

uric acid = assay: Urate reduction in culture medium by mUox/smUox-expressing HeLaURAT1 cells; type: cell-based, human; conditions: HeLaURAT1, 0.5 mM uric acid, 72 h, constitutive or mUTS-controlled expression
Experimental: (a) Profiling of urate reduction mediated by constitutive or UREX-controlled expression of an intracellular (mUox) or secretion-engineered (smUox) urate oxidase variant. 2×10^5 HeLaURAT1 cells were co-transfected with either (i) pCK65 (PUREX8-smUox-pA) and isogenic control vector pcDNA3.1, (ii) pCK65 (PUREX8-smUox-pA) and pCK25 (PhEF1α-mUTS-pA), (iii) pCK67 (PUREX8-mUox-pA) and pcDNA3.1 or (iv) pCK67 (PUREX8-mUox-pA) and pCK25 (PhEF1α-mUTS-pA). The cells were cultivated for 72 h with 0.5 mM uric acid before urate levels were determined in the culture supernatant.
(b) Urate degradation profiles UREX-controlled smUox expression. […]
SEAP levels are quantified in cell culture supernatants and mouse serum using a standard p-nitrophenylphosphate-based light absorbance time course (Berger, J., Hauber, J., Hauber, R., Geiger, R. & Cullen, B. R., Gene 66, 1-10 (1988)). Uric acid levels are assessed in cell culture supernatants, murine serum or urine using the Amplex® Red uric acid/uricase assay kit (Invitrogen, Basel, Switzerland, Cat. No. A22181) according to the manufacturer's protocol. […] The addition of uricase triggers the enzymatic conversion of uric acid to allantoin, CO2 and H2O2 that reacts, in the presence of horseradish peroxidase stoichiometrically with Amplex Red reagent to generate the red-fluorescent oxidation product resorufin which can be quantified at 585 nm.

Row | Molecule | effect on SEAP expression [1] | reduction of uric acid in the culture medium (uric acid)
1 | O=c1[nH]c(=O)c2[nH]c(=O)[nH]c2[nH]1 [uric acid, 7,9-dihydro-3H-purine-2,6,8-trione] | derepresses SEAP expression | –
2 | mUox: intracellular variant of the urate oxidase from Aspergillus flavus codon-optimized for expression in mammalian cells (protein, UniProt Q00511 2-302, looked up, codon-optimized for mammalian expression, intracellular variant of the urate oxidase from Aspergillus flavus codon-optimized for expression in mammalian cells) Uricase: SAVKAARYGKDNVRVYKVHKDEKTGVQTVYEMTVCVLLEGEIETSYTKADNSVIVATDSIKNTIYITAKQNPVTPPELFGSILGTHFIEKYNHIHAAHVNIVCHRWTRMDIDGKPHPHSFIRDSEEKRNVQVDVVEGKGIDIKSSLSGLTVLKSTNSQFWGFLRDEYTTLKETWDRILSTDVDATWQWKNFSGLQEVRSHVPKFDATWATAREVTLKTFAEDNSASVQATMYKMAEQILARQQLIETVEYSLPNKHYFEIDLSWHKGLQNTGKNAEVFAPQSDPNGLIKCTVGRSSLKSKL | – | reduces uric acid
